Assay results taken from patent US20230292780A1, “LISTERIA INHIBITION BY MANGANESE DEPLETION” (Chr. Hansen A/S, priority 2020, published 2023).
Like-named read-outs stand apart in the source and are kept apart here.

Assays:
[1] = system: L. lactis subsp. cremoris MG1363; details: same CDM
Method: (§1) All the components were dissolved in 700 mL Milli-Q water to minimize traces of manganese, and the pH was set to 6.8 with KOH, after which the volume was adjusted to 1 L and filter-sterilized.
(§2) The following strains were tested: • 1. L. monocytogenes 1: DSM 15675 (obtainable from DSMZ) • 2. L. monocytogenes 2: mhl210 (obtainable from the Copenhagen University from Department of Veterinary and Animal Sciences, Section for Food Safety and Zoonoses) • 3. L. monocytogenes 3: ATCC 13932 (obtainable from ATCC) • 4. L. innocua BL 86/26 • 5. L. lactis subsp. cremoris MG1363 (MoBiTec GmbH, Germany)
(§3) L. innocua BL 86/26 and L. lactis MG1363 were pre-grown from -80° C. glycerol stocks in M17 broth with 1% (w/v) glucose. The three L. monocytogenes were pre-grown from −80° C. glycerol stocks in BHI. All cultures were incubated overnight as standing cultures at 30° C., resulting in stationary phase cultures. The next day, 1 mL of each culture was washed twice with and resuspended in manganese-deficient CDM to remove residual manganese. 1 μL of each washed culture was then used to inoculate, in triplicate, a well of a 96-wells plate containing 200 μL CDM supplemented with 1% glucose diluted from a 50% (w/v) stock solution dissolved in demineralized water, in which manganese was left out, or added to a final concentration of 0.00006, 0.0006, 0.006, 0.06 or 0.6 mg L^−1 manganese. Growth was followed by monitoring the absorbance at 600 nm at 30° C. in a Synergi H1 reader (BioTek, Winooski, VT, USA). This experiment was repeated twice on separate days to check reproducibility.

[2] = system: four Listeria spp. strains (L. monocytogenes DSM 15675, mhl210, ATCC 13932; L. innocua BL 86/26); details: for growth (absorbance at 600 nm): 30° C.
Method: as §1, §2, §3

[3] = system: L. innocua BL 86/26; details: CDM, 30° C.
Method: (§4) CDM for growth of Lactococcus lactis and Listeria innocua was prepared as described in Example 1. As to Streptococcus thermophilus, a second Mn-free CDM supporting it growth was prepared essentially as described by Otto et al. (“The relation between growth rate and electrochemical proton gradient of Streptococcus cremoris.” FEMS Microbiology Letters 16.1 (1983): 69-74) with the following exceptions: All metals were used in the same final concentrations as listed in Table 4, and all amino acids were added to a final concentration of 0.08 g/L except for cysteine, which consisted of a final concentration of 0.5 g/L. Wolfe's vitamin solution was used in which DL-Ca-pantothenate was increased to have a final concentration of 400 mg/L, and urea and NaHCO3 were added to a final concentration of 0.12 and 0.42 g, respectively.
(§5) The following strains were tested: • 1. L. lactis single strain isolated from Fresco 1000NG-10 (Chr. Hansen A/S, Denmark) • 2. S. thermophilus single strain isolated from Fresco 1000NG-10 (Chr. Hansen A/S, Denmark) • 3. L. innocua BL 86/26
(§6) All strains were pre-grown to stationary phase cultures from −80° C. glycerol stocks in M17 broth with 1% (w/v) glucose, as standing cultures at 30° C. 1 mL of each culture was then washed twice with and resuspended in manganese-deficient CDM to remove residual manganese. 1 μL of each washed culture was then used to inoculate, in triplicate, a well of a 96-wells plate containing 200 μL CDM supplemented with 1% (w/v) glucose diluted from a 50% (w/v) stock solution dissolved in Milli-Q water, and in which manganese was left out, or added to a final concentration of 0.00006, 0.0006, 0.006, 0.06 or 0.6 mg L-1 manganese. Growth was followed by monitoring the absorbance at 600 nm at 30° C. in a Synergi H1 reader (BioTek, Winooski, VT, USA).

[4] = system: L. lactis single strain isolated from Fresco 1000NG-10; details: CDM, 0 to 0.6 ppm manganese, 30° C.
Method: as §4, §5, §6

[5] = system: S. thermophilus single strain isolated from Fresco 1000NG-10; details: second Mn-free CDM, 0 to 0.6 ppm manganese, 30° C.
Method: as §4, §5, §6

[Mn+2] [manganese] was tested, and the “growth on depletion of manganese” value [1] was “hardly inhibited”, the “growth (absorbance at 600 nm)” value ([2]; 0.0006 ppm manganese added to CDM) was “severely hampered” and the “growth (absorbance at 600 nm)” value ([2]; 0.006 ppm manganese added to CDM) was “some growth defects”. The “growth (absorbance at 600 nm)” value ([2]; 0.06 ppm manganese added to CDM) was “no growth defect”, the “growth (absorbance at 600 nm)” value ([2]; 0.6 ppm manganese added to CDM) was “no growth defect” and the “manganese concentration below which inhibition of Listeria can be seen” value ([2]; CDM) was “below 0.006 ppm”. The “manganese concentration that restored the growth of Listeria” value ([2]; CDM) was “above 0.006 ppm”, the “time the inhibitory effect due to low manganese levels is maintained” value ([2]; low manganese levels in CDM) was “at least 20 hours” and the “manganese required for growth to occur” value [3] was “more than 0.0006 ppm”. The “growth on depletion of manganese” value [4] was “minimally inhibited” and the “growth on depletion of manganese” value [5] was “minimally inhibited”.
